# Source: US20130303532A1, “IMIDAZOPYRAZINES FOR USE AS MPS-1 AND TKK INHIBITORS IN THE TREATMENT HYPERPROLIFERATIVE DISORDERS” (BAYER INTELLECTUAL PROPERTY GmbH, priority 2010, published 2013)
# Molecular target: T1, human kinase Mps-1 (Homo sapiens, UniProt P33981)
# T1 construct: N-terminally GST-tagged human full length recombinant Mps-1 kinase; GST (N); purchased Invitrogen, Karslruhe, Germany PV4071
# T1 sequence (P33981 1-857): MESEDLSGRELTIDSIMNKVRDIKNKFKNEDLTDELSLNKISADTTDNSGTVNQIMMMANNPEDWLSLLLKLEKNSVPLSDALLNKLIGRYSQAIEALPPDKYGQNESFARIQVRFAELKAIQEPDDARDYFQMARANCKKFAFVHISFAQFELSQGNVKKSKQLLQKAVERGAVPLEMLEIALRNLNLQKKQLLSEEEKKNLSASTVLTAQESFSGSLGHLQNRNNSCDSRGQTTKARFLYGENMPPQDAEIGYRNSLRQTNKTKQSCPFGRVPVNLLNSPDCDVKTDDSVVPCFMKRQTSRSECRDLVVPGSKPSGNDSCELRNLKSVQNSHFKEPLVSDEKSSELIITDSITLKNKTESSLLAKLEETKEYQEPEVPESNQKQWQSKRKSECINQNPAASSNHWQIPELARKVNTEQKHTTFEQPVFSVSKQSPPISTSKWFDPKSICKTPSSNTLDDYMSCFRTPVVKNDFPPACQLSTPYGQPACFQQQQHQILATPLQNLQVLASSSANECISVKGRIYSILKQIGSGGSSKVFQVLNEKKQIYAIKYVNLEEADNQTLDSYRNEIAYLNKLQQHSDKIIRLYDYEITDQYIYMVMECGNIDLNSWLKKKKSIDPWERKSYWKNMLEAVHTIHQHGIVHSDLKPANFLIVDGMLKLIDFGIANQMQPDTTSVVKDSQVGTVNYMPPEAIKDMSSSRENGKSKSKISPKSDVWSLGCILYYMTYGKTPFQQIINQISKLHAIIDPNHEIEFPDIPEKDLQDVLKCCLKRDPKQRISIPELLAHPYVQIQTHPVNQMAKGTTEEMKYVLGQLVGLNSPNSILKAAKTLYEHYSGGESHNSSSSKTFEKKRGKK
# Assay: Mps-1 kinase assay (TR-FRET)
# Assay type: biochemical
# Conditions: Mps1 IC50 [nM], N-terminally GST-tagged human full length recombinant Mps-1; 10 μM ATP; 1 μM biotinylated peptide substrate; 60 min at 22° C.
row,SMILES,IC50 [nM]
1,"O=C(NC1CC1)c1ccc(-c2cnc3c(NCc4ccco4)nccn23)cc1Cl [Example 7-50, 2-chloro-N-cyclopropyl-4-{8-[(furan-2-ylmethyl)amino]imi-dazo[1,2-a]pyrazin-3-yl}benzamide]",209
2,"CC(C)CNc1nccn2c(-c3ccc(C(=O)NC4CC4)c(Cl)c3)cnc12 [Example 7-51, 2-chloro-N-cyclopropyl-4-{8-[(2-methylpropyl)amino]imi-dazo[1,2-a]pyrazin-3-yl}benzamide]",15.7
3,"N#CCCNc1nccn2c(-c3ccc(C(=O)NC4CC4)c(Cl)c3)cnc12 [Example 7-52, 2-chloro-4-{8-[(2-cyanoethyl)amino]imi-dazo[1,2-a]pyrazin-3-yl}-N-cyclopropylbenzamide]",272
4,"O=C(NC1CC1)c1ccc(-c2cnc3c(NCC(F)(F)C(F)(F)F)nccn23)cc1Cl [Example 7-53, 2-chloro-N-cyclopropyl-4-{8-[(2,2,3,3,3-pentafluoropropyl)amino]imi-dazo[1,2-a]pyrazin-3-yl}benzamide]",106
5,"NC(=O)CCNc1nccn2c(-c3ccc(C(=O)NC4CC4)c(Cl)c3)cnc12 [Example 7-54, 4-{8-[(3-amino-3-oxopropyl)amino]imi-dazo[1,2-a]pyrazin-3-yl}-2-chloro-N-cyclopropylbenzamide]",4870
6,"O=C(NC1CC1)c1ccc(-c2cnc3c(NCC(O)C(F)(F)F)nccn23)cc1Cl (centres unmarked) [Example 7-55, 2-chloro-N-cyclopropyl-4-{8-[(3,3,3-trifluoro-2-hydroxypropyl)amino]imi-dazo[1,2-a]pyrazin-3-yl}benzamide]",175
7,"O=C(NC1CC1)c1ccc(-c2cnc3c(NCCC(F)(F)F)nccn23)cc1Cl [Example 7-56, 2-chloro-N-cyclopropyl-4-{8-[(3,3,3-trifluoropropyl)amino]imi-dazo[1,2-a]pyrazin-3-yl}benzamide]",43
8,"CC(O)CNc1nccn2c(-c3ccc(C(=O)NC4CC4)c(Cl)c3)cnc12 (centres unmarked) [Example 7-57, 2-chloro-N-cyclopropyl-4-{8-[(2-hydroxypropyl)amino]imi-dazo[1,2-a]pyrazin-3-yl}benzamide]",401
9,"COCCCNc1nccn2c(-c3ccc(C(=O)NC4CC4)c(Cl)c3)cnc12 [Example 7-58, 2-chloro-N-cyclopropyl-4-{8-[(3-methoxypropyl)amino]imi-dazo[1,2-a]pyrazin-3-yl}benzamide]",485
10,"O=C(NC1CC1)c1ccc(-c2cnc3c(NCC(F)F)nccn23)cc1Cl [Example 7-59, 2-chloro-N-cyclopropyl-4-{8-[(2,2-difluoroethyl)amino]imi-dazo[1,2-a]pyrazin-3-yl}benzamide]",239
11,"Cn1ccc(CNc2nccn3c(-c4ccc(C(=O)NC5CC5)c(Cl)c4)cnc23)n1 [Example 7-60, 2-chloro-N-cyclopropyl-4-(8-{[(1-methyl-1H-pyrazol-3-yl)methyl]amino}imi-dazo[1,2-a]pyrazin-3-yl)benzamide]",767
12,"Cn1nccc1CNc1nccn2c(-c3ccc(C(=O)NC4CC4)c(Cl)c3)cnc12 [Example 7-61, 2-chloro-N-cyclopropyl-4-(8-{[(1-methyl-1H-pyrazol-5-yl)methyl]amino}imi-dazo[1,2-a]pyrazin-3-yl)benzamide]",269
13,"Cn1cc(CNc2nccn3c(-c4ccc(C(=O)NC5CC5)c(Cl)c4)cnc23)cn1 [Example 7-62, 2-chloro-N-cyclopropyl-4-(8-{[(1-methyl-1H-pyrazol-4-yl)methyl]amino}imi-dazo[1,2-a]pyrazin-3-yl)benzamide]",308
14,"CCOC(C)CNc1nccn2c(-c3ccc(C(=O)NC4CC4)c(Cl)c3)cnc12 (centres unmarked) [Example 7-63, 2-chloro-N-cyclopropyl-4-{8-[(2-ethoxypropyl)amino]imi-dazo[1,2-a]pyrazin-3-yl}benzamide]",409
15,"CC(C)(O)CNc1nccn2c(-c3ccc(C(=O)NC4CC4)c(Cl)c3)cnc12 [Example 7-64, 2-chloro-N-cyclopropyl-4-{8-[(2-hydroxy-2-methylpropyl)amino]imi-dazo[1,2-a]pyrazin-3-yl}benzamide]",538
16,"O=C(NC1CC1)c1ccc(-c2cnc3c(NCc4ccc(Cl)s4)nccn23)cc1Cl [Example 7-65, 2-chloro-4-(8-{[(5-chlorothiophen-2-yl)methyl]amino}imi-dazo[1,2-a]pyrazin-3-yl)-N-cyclopropylbenzamide]",25
17,"O=C(NC1CC1)c1ccc(-c2cnc3c(NC[C@@H](O)CO)nccn23)cc1Cl [Example 7-68, 2-chloro-N-cyclopropyl-4-{8-[(2,3-dihydroxypropyl)amino]imi-dazo[1,2-a]pyrazin-3-yl}benzamide]",1720
18,"O=C(NC1CC1)c1ccc(-c2cnc3c(NCCO)nccn23)cc1O [Example 7-70, N-cyclopropyl-2-hydroxy-4-{8-[(2-hydroxyethyl)amino]imi-dazo[1,2-a]pyrazin-3-yl}benzamide]",414
19,"O=C(NC1CC1)c1ccc(-c2cnc3c(NCCCN4CCOCC4)nccn23)cc1O [Example 7-71, N-cyclopropyl-2-hydroxy-4-(8-{[3-(morpholin-4-yl)propyl]amino}imi-dazo[1,2-a]pyrazin-3-yl)benzamide]",304
20,"O=C(NC1CC1)c1ccc(-c2cnc3c(NCC4CCCO4)nccn23)cc1O (centres unmarked) [Example 7-72, N-cyclopropyl-2-hydroxy-4-{8-[(tetrahydrofuran-2-ylmethyl)amino]imi-dazo[1,2-a]pyrazin-3-yl}benzamide]",36.3
21,"O=C(NC1CC1)c1ccc(-c2cnc3c(NCCCN4CCCC4=O)nccn23)cc1O [Example 7-73, N-cyclopropyl-2-hydroxy-4-(8-{[3-(2-oxopyrrolidin-1-yl)propyl]amino}imi-dazo[1,2-a]pyrazin-3-yl)benzamide]",593
22,"O=C(NC1CC1)c1ccc(-c2cnc3c(NCc4ccc(F)cc4)nccn23)cc1O [Example 7-74, N-cyclopropyl-4-{8-[(4-fluorobenzyl)amino]imi-dazo[1,2-a]pyrazin-3-yl}-2-hydroxybenzamide]",98.2
23,"O=C(NC1CC1)c1ccc(-c2cnc3c(NCc4cccs4)nccn23)cc1O [Example 7-76, N-cyclopropyl-2-hydroxy-4-{8-[(thiophen-2-ylmethyl)amino]imi-dazo[1,2-a]pyrazin-3-yl}benzamide]",35.8
24,"O=C(NC1CC1)c1ccc(-c2cnc3c(NCCCO)nccn23)cc1O [Example 7-78, N-cyclopropyl-2-hydroxy-4-{8-[(3-hydroxypropyl)amino]imi-dazo[1,2-a]pyrazin-3-yl}benzamide]",93.1
25,"O=C(NC1CC1)c1ccc(-c2cnc3c(NCc4ccco4)nccn23)cc1O [Example 7-79, N-cyclopropyl-4-{8-[(furan-2-ylmethyl)amino]imi-dazo[1,2-a]pyrazin-3-yl}-2-hydroxybenzamide]",77.3
26,"CC(C)CNc1nccn2c(-c3ccc(C(=O)NC4CC4)c(O)c3)cnc12 [Example 7-80, N-cyclopropyl-2-hydroxy-4-{8-[(2-methylpropyl)amino]imi-dazo[1,2-a]pyrazin-3-yl}benzamide]",15.5
27,"N#CCCNc1nccn2c(-c3ccc(C(=O)NC4CC4)c(O)c3)cnc12 [Example 7-81, 4-{8-[(2-cyanoethyl)amino]imi-dazo[1,2-a]pyrazin-3-yl}-N-cyclopropyl-2-hydroxybenzamide]",51.3

# Same assay, conditions: N-terminally GST-tagged human full length recombinant Mps-1; 10 μM ATP; 1 μM biotinylated peptide substrate; 60 min at 22° C.; read-out: Mps1 IC50
row,SMILES,IC50 [nM]
1,"O=C(NC1CC1)c1ccc(-c2cnc3c(NCc4ccncc4)nccn23)cc1Cl [Example 7-49, 2-chloro-N-cyclopropyl-4-{8-[(pyridin-4-ylmethyl)amino]imidazo[1,2-a]pyrazin-3-yl}benzamide]",387
2,"CS(=O)(=O)CCCNc1nccn2c(-c3ccc(C(=O)NC4CC4)c(Cl)c3)cnc12 [Example 7-66, 2-chloro-N-cyclopropyl-4-(8-{[3-(methylsulfonyl)propyl]ami-no}imidazo[1,2-a]pyrazin-3-yl)benzamide]",519
3,"CCCNc1nccn2c(-c3ccc(C(=O)NC4CC4)c(O)c3)cnc12 [Example 7-69, N-cyclopropyl-2-hydroxy-4-[8-(propylamino)imidazo[1,2-a]pyrazin-3-yl]benzamide]",23.3
4,"O=C(NC1CC1)c1ccc(-c2cnc3c(NCc4ccccc4)nccn23)cc1O [Example 7-75, 4-[8-(benzylamino)imidazo[1,2-a]pyrazin-3-yl]-N-cyclopropyl-2-hydroxybenzamide]",2030
5,"CCNc1nccn2c(-c3ccc(C(=O)NC4CC4)c(O)c3)cnc12 [Example 7-77, N-cyclopropyl-4-[8-(ethylamino)imidazo[1,2-a]pyrazin-3-yl]-2-hydroxybenzamide]",63.1
